Measurements: patent publication US10670605B2, “Cysteine reactive probes and uses thereof” (The Scripps Research Institute, priority 2015, dated 2020)

Experiments:
Experiment in all cases: Competitive isoTOP-ABPP in situ (fragment-treated cells)
Format in all cases: cell-based
[1] = biological target: cysteines in MDA-MB-231 and Ramos cells (Homo sapiens, UniProt Q16831)
[2] = biological target: T1, cysteines in MDA-MB-231 and Ramos cells (Homo sapiens, UniProt Q9HAV7)
T1 sequence (Q9HAV7 28-217): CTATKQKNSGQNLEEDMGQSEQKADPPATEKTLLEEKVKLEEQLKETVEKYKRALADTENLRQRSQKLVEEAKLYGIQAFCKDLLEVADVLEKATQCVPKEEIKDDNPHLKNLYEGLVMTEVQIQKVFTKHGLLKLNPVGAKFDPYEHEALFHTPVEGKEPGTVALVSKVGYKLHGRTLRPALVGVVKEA

[3] = biological target: T2, cysteines in MDA-MB-231 and Ramos cells (Homo sapiens, UniProt P10599)
T2 sequence (P10599 1-105): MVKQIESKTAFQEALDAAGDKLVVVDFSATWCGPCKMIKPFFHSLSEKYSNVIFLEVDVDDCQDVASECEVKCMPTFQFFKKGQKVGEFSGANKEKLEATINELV

[4] = biological target: T3, cysteines in MDA-MB-231 and Ramos cells (Homo sapiens, UniProt P42224)
T3 sequence (P42224 1-750): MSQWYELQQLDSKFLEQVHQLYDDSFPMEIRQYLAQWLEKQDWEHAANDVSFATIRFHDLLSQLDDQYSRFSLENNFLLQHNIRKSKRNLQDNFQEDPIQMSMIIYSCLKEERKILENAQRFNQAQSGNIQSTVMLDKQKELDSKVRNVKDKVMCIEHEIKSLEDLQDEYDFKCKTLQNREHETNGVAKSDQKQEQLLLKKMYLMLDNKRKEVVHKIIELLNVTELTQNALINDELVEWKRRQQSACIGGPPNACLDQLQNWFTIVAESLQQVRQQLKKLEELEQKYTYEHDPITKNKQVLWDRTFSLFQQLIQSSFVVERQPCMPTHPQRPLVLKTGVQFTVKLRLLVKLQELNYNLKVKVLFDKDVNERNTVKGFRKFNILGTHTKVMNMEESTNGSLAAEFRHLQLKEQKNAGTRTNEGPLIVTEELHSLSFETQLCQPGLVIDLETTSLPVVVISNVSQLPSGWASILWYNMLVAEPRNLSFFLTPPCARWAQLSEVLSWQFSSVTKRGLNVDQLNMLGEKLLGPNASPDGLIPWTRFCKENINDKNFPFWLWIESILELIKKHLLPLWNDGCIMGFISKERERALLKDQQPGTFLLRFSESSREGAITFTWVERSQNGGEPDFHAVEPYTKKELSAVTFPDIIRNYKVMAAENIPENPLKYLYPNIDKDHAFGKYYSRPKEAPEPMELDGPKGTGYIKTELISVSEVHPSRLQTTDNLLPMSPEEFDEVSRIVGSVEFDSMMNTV

[5] = biological target: T4, cysteines in MDA-MB-231 and Ramos cells (Homo sapiens, UniProt Q96CM8)
T4 sequence (Q96CM8 42-615): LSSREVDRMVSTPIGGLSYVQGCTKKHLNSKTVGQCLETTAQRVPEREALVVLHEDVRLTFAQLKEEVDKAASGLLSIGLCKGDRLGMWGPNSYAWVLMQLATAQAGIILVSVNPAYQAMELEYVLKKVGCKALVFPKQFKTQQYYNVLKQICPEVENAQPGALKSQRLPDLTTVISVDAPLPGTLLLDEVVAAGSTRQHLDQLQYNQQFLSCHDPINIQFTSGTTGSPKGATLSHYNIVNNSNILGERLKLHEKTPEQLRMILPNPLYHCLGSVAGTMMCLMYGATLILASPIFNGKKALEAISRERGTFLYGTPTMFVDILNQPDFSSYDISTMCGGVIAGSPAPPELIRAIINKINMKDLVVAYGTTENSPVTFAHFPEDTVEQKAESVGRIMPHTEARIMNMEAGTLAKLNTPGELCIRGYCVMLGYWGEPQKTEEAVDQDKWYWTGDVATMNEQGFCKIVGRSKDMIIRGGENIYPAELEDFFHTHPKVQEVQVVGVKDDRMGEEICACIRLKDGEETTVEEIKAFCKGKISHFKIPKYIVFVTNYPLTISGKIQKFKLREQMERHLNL

[6] = biological target: T5, cysteines in MDA-MB-231 and Ramos cells (Homo sapiens, UniProt Q9NQR4)
T5 sequence (Q9NQR4 1-276): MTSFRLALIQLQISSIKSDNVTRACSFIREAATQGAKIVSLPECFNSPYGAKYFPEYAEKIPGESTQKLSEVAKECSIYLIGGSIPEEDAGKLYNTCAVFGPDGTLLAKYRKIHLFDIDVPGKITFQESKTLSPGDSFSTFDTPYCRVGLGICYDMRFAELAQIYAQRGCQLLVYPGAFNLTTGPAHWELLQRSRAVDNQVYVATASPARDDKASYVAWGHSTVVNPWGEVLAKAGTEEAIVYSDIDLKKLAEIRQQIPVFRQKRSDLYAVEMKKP

[7] = biological target: T6, cysteines in MDA-MB-231 and Ramos cells (Homo sapiens, UniProt P51946)
T6 sequence (P51946 1-323): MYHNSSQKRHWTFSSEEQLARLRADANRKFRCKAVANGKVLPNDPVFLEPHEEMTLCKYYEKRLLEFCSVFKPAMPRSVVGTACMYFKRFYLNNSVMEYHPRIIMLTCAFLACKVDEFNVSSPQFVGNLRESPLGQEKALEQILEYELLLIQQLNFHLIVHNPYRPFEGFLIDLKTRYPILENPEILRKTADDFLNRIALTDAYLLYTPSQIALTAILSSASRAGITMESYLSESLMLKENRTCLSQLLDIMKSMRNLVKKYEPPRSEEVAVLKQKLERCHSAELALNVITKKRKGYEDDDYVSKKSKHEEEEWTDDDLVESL

[8] = biological target: cysteines in MDA-MB-231 and Ramos cells (Homo sapiens, UniProt P62888)

Sequence of cysteines in MDA-MB-231 and Ramos cells (Homo sapiens, UniProt Q16831) (Q16831 whole entry): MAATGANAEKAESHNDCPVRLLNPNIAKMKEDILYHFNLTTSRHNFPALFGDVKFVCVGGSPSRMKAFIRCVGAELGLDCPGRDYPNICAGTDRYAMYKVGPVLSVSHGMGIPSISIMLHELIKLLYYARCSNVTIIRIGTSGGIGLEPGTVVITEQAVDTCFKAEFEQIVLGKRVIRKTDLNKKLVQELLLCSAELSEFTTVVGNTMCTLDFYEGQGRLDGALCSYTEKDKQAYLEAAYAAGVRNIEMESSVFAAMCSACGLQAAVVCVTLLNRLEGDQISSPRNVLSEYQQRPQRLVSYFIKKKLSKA

Structure (SMILES): COc1ccc2c(c1)CCCN2C(=O)CCl [compound 2]
- isoTOP-ABPP reactivity Q16831_C162 UPP1 ([1]; 200 μM, insitu, 231): 1.2
- isoTOP-ABPP reactivity Q9HAV7_C124 GRPEL1 ([2]; 200 μM, insitu, 231): 3.2
- isoTOP-ABPP reactivity P10599_C32 TXN ([3]; 200 μM, insitu, 231): 7.9
- isoTOP-ABPP reactivity P42224_C492 STAT1 ([4]; 200 μM, insitu, 231): 16.9
- isoTOP-ABPP reactivity Q96CM8_C64 ACSF2 ([5]; 200 μM, insitu, 231): 20.0
- isoTOP-ABPP reactivity Q9NQR4_C153 N1T2 ([6]; 200 μM, insitu, 231): 13.1
- isoTOP-ABPP reactivity P51946_C244 CCNH ([7]; 200 μM, insitu, 231): 1.9
- isoTOP-ABPP reactivity P62888_C92 RPL30 ([8]; 200 μM, insitu, 231): 1.0

Structure (SMILES): COc1ccc(C2CC(c3cccs3)=NN2C(=O)CCl)cc1 (centres unmarked) [compound 4]
- isoTOP-ABPP reactivity Q16831_C162 UPP1 ([1]; 100 μM in situ 231): 1.0
- isoTOP-ABPP reactivity Q9HAV7_C124 GRPEL1 ([2]; 100 μM in situ 231): 1.7
- isoTOP-ABPP reactivity P10599_C32 TXN ([3]; 100 μM in situ 231): 3.3
- isoTOP-ABPP reactivity Q96CM8_C64 ACSF2 ([5]; 100 μM in situ 231): 20.0
- isoTOP-ABPP reactivity Q9NQR4_C153 N1T2 ([6]; 100 μM in situ 231): 0.7
- isoTOP-ABPP reactivity P51946_C244 CCNH ([7]; 100 μM in situ 231): 5.3
- isoTOP-ABPP reactivity P62888_C92 RPL30 ([8]; 100 μM in situ 231): 2.7

Structure (SMILES): COc1cc2c(cc1OC)CN(C(=O)CCl)CC2 [compound 8]
- isoTOP-ABPP reactivity Q16831_C162 UPP1 ([1]; 200 μM, insitu, 231): 20.0
- isoTOP-ABPP reactivity Q9HAV7_C124 GRPEL1 ([2]; 200 μM, insitu, 231): 2.2
- isoTOP-ABPP reactivity P10599_C32 TXN ([3]; 200 μM, insitu, 231): 5.9
- isoTOP-ABPP reactivity Q96CM8_C64 ACSF2 ([5]; 200 μM, insitu, 231): 20.0
- isoTOP-ABPP reactivity Q9NQR4_C153 N1T2 ([6]; 200 μM, insitu, 231): 20.0
- isoTOP-ABPP reactivity P62888_C92 RPL30 ([8]; 200 μM, insitu, 231): 1.5

Structure (SMILES): O=C(CCl)N1CCC(Cc2ccccc2)CC1 [compound 9]
- isoTOP-ABPP reactivity Q16831_C162 UPP1 ([1]; 200 μM, insitu, 231): 7.7
- isoTOP-ABPP reactivity Q9HAV7_C124 GRPEL1 ([2]; 200 μM, insitu, 231): 4.7
- isoTOP-ABPP reactivity P10599_C32 TXN ([3]; 200 μM, insitu, 231): 20.0
- isoTOP-ABPP reactivity P42224_C492 STAT1 ([4]; 200 μM, insitu, 231): 3.1
- isoTOP-ABPP reactivity Q9NQR4_C153 N1T2 ([6]; 200 μM, insitu, 231): 20.0
- isoTOP-ABPP reactivity P62888_C92 RPL30 ([8]; 200 μM, insitu, 231): 1.3

Structure (SMILES): O=C(CCl)N1CCN(S(=O)(=O)c2ccccc2F)CC1 [compound 10]
- isoTOP-ABPP ratio Q16831_C162 ([1]; 200 μM, insitu, 231): 7.3
- isoTOP-ABPP ratio Q9HAV7_C124 ([2]; 200 μM, insitu, 231): 1.0
- isoTOP-ABPP ratio P10599_C32 ([3]; 200 μM, insitu, 231): 3.8
- isoTOP-ABPP ratio P42224_C492 ([4]; 200 μM, insitu, 231): 20.0
- isoTOP-ABPP ratio Q96CM8_C64 ([5]; 200 μM, insitu, 231): 20.0
- isoTOP-ABPP ratio Q9NQR4_C153 ([6]; 200 μM, insitu, 231): 20.0
- isoTOP-ABPP ratio P51946_C244 ([7]; 200 μM, insitu, 231): 1.7
- isoTOP-ABPP ratio P62888_C92 ([8]; 200 μM, insitu, 231): 1.3
- isoTOP-ABPP ratio P62888_C92 ([8]; 200 μM, insitu, ramos): 4.5

Structure (SMILES): Cn1cc(S(=O)(=O)N2CCOCC2)cc1C(=O)NC(=O)CCl [compound 11]
- isoTOP-ABPP ratio Q16831_C162 ([1]; 100 μM in situ 231): 0.8
- isoTOP-ABPP ratio Q9HAV7_C124 ([2]; 100 μM in situ 231): 0.9
- isoTOP-ABPP ratio P10599_C32 ([3]; 100 μM in situ 231): 13.0
- isoTOP-ABPP ratio P42224_C492 ([4]; 100 μM in situ 231): 0.7
- isoTOP-ABPP ratio Q96CM8_C64 ([5]; 100 μM in situ 231): 1.5
- isoTOP-ABPP ratio Q9NQR4_C153 ([6]; 100 μM in situ 231): 3.7
- isoTOP-ABPP ratio P51946_C244 ([7]; 100 μM in situ 231): 1.3
- isoTOP-ABPP ratio P62888_C92 ([8]; 100 μM in situ 231): 0.8
